{"source": "paper PMC3737437", "about": "“The malQ gene is essential for starch metabolism in Streptococcus mutans” (Journal of Oral Microbiology, 2013)", "biological_target": "T1, GlgP (Streptococcus mutans, UniProt Q8DT31)", "T1 construct": "gene overlapping malQ by 29 nt, not the second phosphorylase phsG", "T1 sequence (Q8DT31 1-758)": "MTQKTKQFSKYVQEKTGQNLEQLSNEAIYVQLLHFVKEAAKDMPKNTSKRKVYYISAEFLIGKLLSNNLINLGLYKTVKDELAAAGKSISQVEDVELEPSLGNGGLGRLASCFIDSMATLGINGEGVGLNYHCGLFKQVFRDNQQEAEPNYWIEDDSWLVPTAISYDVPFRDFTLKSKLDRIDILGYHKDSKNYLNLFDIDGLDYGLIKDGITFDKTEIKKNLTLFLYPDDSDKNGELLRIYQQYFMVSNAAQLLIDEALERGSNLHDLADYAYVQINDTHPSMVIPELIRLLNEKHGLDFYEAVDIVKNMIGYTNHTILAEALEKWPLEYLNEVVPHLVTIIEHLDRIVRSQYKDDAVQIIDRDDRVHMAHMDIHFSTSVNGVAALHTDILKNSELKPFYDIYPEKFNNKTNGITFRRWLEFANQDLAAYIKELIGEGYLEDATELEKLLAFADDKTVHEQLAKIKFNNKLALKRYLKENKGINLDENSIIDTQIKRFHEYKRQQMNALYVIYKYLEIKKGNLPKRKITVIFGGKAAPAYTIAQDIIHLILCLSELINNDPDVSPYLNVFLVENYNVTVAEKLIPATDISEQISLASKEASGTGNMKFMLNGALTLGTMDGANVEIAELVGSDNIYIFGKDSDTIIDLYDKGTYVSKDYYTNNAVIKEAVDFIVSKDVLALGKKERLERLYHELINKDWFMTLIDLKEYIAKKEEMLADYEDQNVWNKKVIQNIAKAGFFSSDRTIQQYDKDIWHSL", "experiment": "phosphorylase assay, phosphoglucomutase / glucose-6-phosphate dehydrogenase-NADP end-point at […] nm", "format": "biochemical", "conditions": "formed from 1% maltodextrin or 0.8% amylodextrin, 50 mM potassium phosphate pH 7, 0.5 mM MgCl2, 37 °C, 10 min", "data": [{"molecule": "O=P(O)(O)O[C@H]1O[C@H](CO)[C@@H](O)[C@H](O)[C@H]1O", "note": "[glucose-1-phosphate]", "values": [{"measurement": "phosphorylase assay, phosphoglucomutase / glucose-6-phosphate dehydrogenase-NADP", "value": "generated glucose-1-phosphate from maltodextrin and amylodextrin"}]}]}
